Data as given in patent US12398115B2, “Chrysophaentin analogs and use thereof” (Vanderbilt University, priority 2019, dated 2025).
Values after ≈ are worked out from the molar mass of the structure shown. “Also recorded” adds a separate entry of the source. Read-outs that look alike come from different tables or passages of the source.

Experiments:
[1] = system: B. subtilis (PY79 WT) peptidoglycan synthesis; assay: HADA (FDAA) incorporation microscopy assay, peptidoglycan synthesis; format: cell-based, Bacillus subtilis; conditions: for inhibition of peptidoglycan synthesis (FDAA incorporation): B. subtilis, FIGS. 7B and 7C
Protocol: HADA was synthesized according to the reported protocols. Exponentially growing B. subtilis (PY79 WT) cells for the experiments were prepared as described above. […] After a 5-minute incubation at 37° C., HADA stock solution (100 mM) was directly added to the cultures to a final concentration of 0.5 mM. The cultures were then incubated in a 37° C. shaker for 30 minutes. Cell fixation was then carried out by directly adding 0.7 ml 100% ethanol to the cultures, following 1-hour incubation on ice-bath. The fixed cells were collected using centrifuge (9000 g, 3 minutes), washed with 1×PBS twice, and then resuspended into 1×PBS. The cells were imaged using Nikon Ti-E microscope. HADA signal was detected using DAPI filter set (Excitation 395/25 nm; emission 435/26 nm). HADA intensity was analyzed using ImageJ and MicrobeJ plug-in.

[2] = system: Bacillus subtilis (PY79 WT); assay: Cell lengthening assay; format: cell-based; conditions: for cell lengthening: B. Subtilis; for cell lengthening phenotype: B. subtilis, FIG. 7A, concentration not given
Protocol: Bacillus subtilis (PY79 WT, lab stock) were inoculated from an overnight plate culture (single colony) to 3 ml LB in 15 ml culture tubes. The cultures were incubated in a 37° C. shaker until OD600 reached 0.2. The cultures were then diluted with fresh LB to OD600 0.05, followed by another round of incubation to OD600 0.2. At this point, cells have reached exponentially growing states and were used for experiments. […] The cultures were incubated at a 37° C. shaker for 40 minutes, followed by direct addition of 0.7 ml 100% ethanol (70% final ethanol concentration) and then incubation on ice-bath for 1 hour. The fixed cells were imaged using a Nikon Ti-E inverted microscope equipped with a 1.4NA Plan Apo 60X oil objective and Andor iXon EMCCD camera. Cell images were captured under phase-to-contrast channel. Cell length was analyzed using ImageJ and MicrobeJ plug-in.

[3] = system: FtsZ/FtsA/PBP2B localization in B. subtilis; assay: Imaging of fluorescently labeled FtsZ, FtsA and PBP2B (mNeonGreen); format: cell-based, Bacillus subtilis; conditions: for localization of FtsZ: B. Subtilis, concentration not given; for localization of FtsZ, FtsA and PBP2B: B. subtilis, FIG. 7D; for localization of fluorescently labeled FtsZ (mNeonG): 10 μM (5×MIC), high-resolution microscopy
Protocol: B. subtilis strains with fluorescent protein fusion were made (FtsZ-mNeonGreen: bAB185, FtsA-mNeonGreen: bAB167, PBP2B-mNeonGreen: bAB109). Exponentially growing cells for the experiments were prepared as described above. Antibiotic stock solutions were added to 0.3 ml exponentially growing cell cultures to a final concentration of 5×MIC. The cells were incubated at 37° C. for 5 minutes and then immediately imaged using the Ti-E microscope without fixation. mNeonGreen signal was detected using FITC filter set (Excitation 470/24 nm; emission 510/40 nm). Image processing was performed in ImageJ. Images were scaled without interpolation, cropped and rotated. Linear adjustment was performed to optimize contrast and brightness of the images. All the images from the same experiment were processed in the same way in order to ensure fair comparison.

B. Subtilis [4] = assay: Time-lapse microscopy of FtsZ motion; format: cell-based, Bacillus subtilis; conditions: 5×MIC
Protocol: Time-lapse microscopy was employed to monitor the dynamics of FtsZ motion before and after treatment by these compounds. FtsZ movement drives the septal peptidoglycan synthesis machinery in B. subtilis. The movement is carried out by a “treadmilling process” where FtsZ monomer polymerizes at one end and disassembles at the other. FtsZ polymerization is triggered by binding to GTP while its disassembly is catalyzed by GTP hydrolysis to GDP.

S. aureus ATCC 25293 [5] = assay: Microbroth dilution growth inhibition; format: cell-based; conditions: Staphylococcus aureus, ATCC25293; S. aureus ATCC 25293, microbroth dilution
Protocol: (§1) VU0848355 and VU0848354 were evaluated for growth inhibition against S. aureus and inhibition of GTPase activity against S. aureus FtsZ using a biochemical assay (FIGS. 6A-6C).

Gram-positive pathogens = assay: Comparison of bacterial growth inhibition across panel; format: cell-based; conditions: for potency in inhibiting bacterial growth relative to natural C-ring isomers VU0849855 and VU0848355: FIGS. 5A-5C
Protocol: (§2) MICs for all compounds were determined using the CLSI guidelines on the test strains. Solutions of each compound were prepared by dissolution in DMSO (Sigma Aldrich, St. Louis MO) at a concentration of 10-20 mg mL^−1. […] Stock solutions were added to Mueller-Hinton II broth and serial two-fold dilutions were prepared in a 96-well microtiter plate (50 μL per well). Fifty microliters (50 μL) of inoculum containing 1×10^6 CFU mL^−1 for E. coli, S. aureus, or MRSA, or 2×10^6 CFU mL^−1 for E. faecalis or VRE were added to the wells. Plates were covered with a sterile membrane, placed in a plate reader, and agitated for 2 min to mix the contents of the wells. Plates were incubated at 37° C. for 16 h. Wells containing 4% DMSO or gentamycin served as negative and positive controls. […] Each assay was performed in triplicate and two independent experiments were carried out on separate days.
The bacterial growth inhibition of synthetic 9-dechlorochrysophaentins compared favorably to chrysophaentin A when evaluated across a panel of Gram-positive pathogens (Table 1).

S. aureus ATCC 25293 [6] = assay: Agar diffusion assay; format: cell-based, Staphylococcus aureus
Protocol: as §1

S. aureus FtsZ = target: T1, S. aureus FtsZ (Staphylococcus aureus, UniProt P0A031); assay: Biochemical GTPase-FtsZ inhibition assay
T1 sequence (P0A031 1-390): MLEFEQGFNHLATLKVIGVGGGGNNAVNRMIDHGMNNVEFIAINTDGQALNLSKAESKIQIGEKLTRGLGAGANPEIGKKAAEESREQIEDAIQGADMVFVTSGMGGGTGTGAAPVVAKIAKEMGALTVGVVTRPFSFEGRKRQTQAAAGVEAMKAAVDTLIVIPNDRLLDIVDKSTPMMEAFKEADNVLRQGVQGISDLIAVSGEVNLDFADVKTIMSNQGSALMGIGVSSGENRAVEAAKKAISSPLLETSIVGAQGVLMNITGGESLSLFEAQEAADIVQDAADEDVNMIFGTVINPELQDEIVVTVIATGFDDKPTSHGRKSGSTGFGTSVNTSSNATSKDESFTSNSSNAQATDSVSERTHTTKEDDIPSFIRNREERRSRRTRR
Protocol: as §1

B. Subtilis [7] = assay: Minimum inhibitory concentration; format: cell-based; conditions: Bacillus subtilis; read-out: MIC50 B. Subtifis
[8] = system: Enterococcus faecalis (ATCC 29212); assay: Minimum inhibitory concentration, broth microdilution (CLSI); format: cell-based; conditions: for MIC50: Enterococcus faecalis, ATCC29212, read-out: MIC50 E. Faecalis
From the text: (§3) Chemicals-FtsZ inhibitor PC190723 and ampicllin were purchased from Millipore Sigma Aldrich (St. Louis, MO). Chrysophaentin A was obtained from a 2017 collection of the marine alga C. taylorii collected in the U.S. Virgin Islands (Permit VIIS-2017-SCI-0034) and isolated as described previously. All bacterial strains used for drug susceptibility testing were obtained from the American Type Culture Collection (Manassas, VA) and included Escherichia coli (ATCC 25922), Enterococcus faecalis (ATCC 29212), vancomycin-resistant E. faecalis (VRE, ATCC 51299), Staphylococcus aureus (ATCC 25913), and methicillin-resistant S. aureus (MRSA, ATCC 43300). Strains were maintained on agar slants at 4° C. and sub-cultured on fresh agar plates containing ATCC-recommended media. Strains were cultured in liquid media 16 h prior to any antimicrobial screen. BD BBL™ Mueller-Hinton II broth (Fisher Scientific, Hampton NH) was used for MIC determinations.
as §2

[9] = system: VRE, vancomycin-resistant E. faecalis (ATCC 51299); assay: as above; format: cell-based, Enterococcus faecalis; conditions: for MIC50: Enterococcus
From the text: as §3, §2

S. aureus (ATCC 25913) = assay: as above; format: cell-based, Staphylococcus aureus; conditions: for MIC50: Staphylococcus aureus, ATCC25913
From the text: as §3, §2

[10] = system: MRSA, methicillin-resistant S. aureus (ATCC 43300); assay: as above; format: cell-based, Staphylococcus aureus; conditions: for MIC50: Staphylococcus aureus
From the text: as §3, §2

[11] = system: gram-positive bacteria, such as MRSA; conditions: against gram-positive bacteria; cited from earlier work

CC1(C)S[C@@H]2[C@H](NC(=O)[C@H](N)c3ccccc3)C(=O)N2[C@H]1C(=O)O [Ampicillin, ampicillin, reference compound]
inhibition of peptidoglycan synthesis (FDAA incorporation) [1]: inhibit peptidoglycan synthesis

NC(=O)c1c(F)ccc(OCc2nc3cc(Cl)cnc3s2)c1F [PC190723, reference compound]
cell lengthening ([2]; 5 μg/mL (10×MIC)): Cell lengthening was observed | cell lengthening phenotype [2]: produces the expected cell lengthening phenotype | cell lengthening phenotype ([2]; listed as PC1907723): leads to expected cell lengthening | localization of FtsZ [3]: dislocation but retention of FtsZ | inhibition of peptidoglycan synthesis (FDAA incorporation) [1]: does not | inhibition of FDAA incorporation ([1]; up to 10×MIC): minimal inhibition of FDAAs incorporation

COc1cc2cc(OC)c1Oc1cc(c(O)cc1Cl)C/C=C\Cc1cc(O)cc(O)c1Oc1ccc(O)c(c1Cl)C/C=C(/Cl)C2 [VU0848354]
cell lengthening phenotype [2]: neither VU0848355 and VU0848354 replicates the cell lengthening phenotype | cell elongation (B. Subtilis [4]): did not elongate | IC50 (S. aureus ATCC 25293 [5]): < 1 µM | potency in inhibiting bacterial growth relative to natural C-ring isomers VU0849855 and VU0848355 (Gram-positive pathogens): approximately two-fold | localization of FtsZ, FtsA and PBP2B [3]: displace FtsZ/A and penicillin binding protein PBP2B; also recorded: unique dispersion of FtsZ, FtsA and PBP2B | growth inhibition, agar diffusion (S. aureus ATCC 25293 [6]): inhibited growth of S. aureus | IC50 (S. aureus FtsZ; S. aureus FtsZ biochemical assay, read-out: IC50 GTPase-FtsZ inhibition): > 250 µM | inhibition of peptidoglycan synthesis (FDAA incorporation) [1]: inhibit peptidoglycan synthesis; also recorded: inhibited both lateral and septal peptidoglycan synthesis

COc1cc2cc(OC)c1Oc1cc(c(O)cc1Cl)C/C=C\Cc1cc(O)cc(O)c1Oc1cc(c(O)cc1Cl)C/C=C(/Cl)C2 [VU0848355]
cell lengthening phenotype [2]: neither VU0848355 and VU0848354 replicates the cell lengthening phenotype | IC50 (S. aureus ATCC 25293 [5]): < 1 µM | localization of FtsZ, FtsA and PBP2B [3]: displace FtsZ/A and penicillin binding protein PBP2B; also recorded: unique dispersion of FtsZ, FtsA and PBP2B | growth inhibition, agar diffusion (S. aureus ATCC 25293 [6]): inhibited growth of S. aureus | IC50 (S. aureus FtsZ): > 250 µM | inhibition of peptidoglycan synthesis (FDAA incorporation) [1]: inhibit peptidoglycan synthesis; also recorded: inhibited both lateral and septal peptidoglycan synthesis

Oc1cc(O)c2c(c1)C/C=C\Cc1cc(c(Cl)cc1O)Oc1c(O)cc(cc1O)C/C(Cl)=C\Cc1c(O)ccc(c1Cl)O2 [VU0849838, iso-9-dechlorochrysophaentin A]
cell lengthening ([2]; up to 20 μM (10×MIC)): did not affect cell lengthening | MIC50 (B. Subtilis [7]): 2 mg/L (≈ 3.11 µM) | MIC50 [8]: 0.3 mg/L (≈ 0.466 µM) | potency in inhibiting bacterial growth relative to natural C-ring isomers VU0849855 and VU0848355 (Gram-positive pathogens): approximately two-fold | growth inhibition (MIC) relative to natural chrysophaentin A (Gram-positive pathogens; S. aureus, MRSA and E. faecalis): approximately two-fold | localization of fluorescently labeled FtsZ (mNeonG) [3]: complete disassociation of FtsZ | localization of FtsZ [3]: lead to dislocation of FtsZ | MIC50 [9]: 2.2 mg/L (≈ 3.42 µM) | MIC50 (S. aureus (ATCC 25913)): 1.1 mg/L (≈ 1.71 µM) | MIC50 [10]: 1.1 mg/L (≈ 1.71 µM) | inhibition of FDAA incorporation ([1]; 10 μM (5×MIC)): inhibited incorporation of FDAAs

Oc1cc(O)c2c(c1)C/C=C\Cc1cc(c(Cl)cc1O)Oc1c(O)cc(cc1O)C/C(Cl)=C\Cc1cc(c(Cl)cc1O)O2 [VU0849855, 9-dechlorochrysophaentin A]
cell lengthening ([2]; up to 20 μM (10×MIC)): did not affect cell lengthening | MIC50 (B. Subtilis [7]): 4 mg/L (≈ 6.21 µM) | MIC50 [8]: 2.5 mg/L (≈ 3.88 µM) | localization of fluorescently labeled FtsZ (mNeonG) [3]: complete disassociation of FtsZ | localization of FtsZ [3]: lead to dislocation of FtsZ | MIC50 [9]: 5 mg/L (≈ 7.77 µM) | MIC50 (S. aureus (ATCC 25913)): 2.5 mg/L (≈ 3.88 µM) | MIC50 [10]: 2.5 mg/L (≈ 3.88 µM) | inhibition of FDAA incorporation ([1]; 10 μM (5×MIC)): inhibited incorporation of FDAAs

chrysophaentin A [reference compound]
MIC50 [11]: 1 to 4 µM | MIC50 E. Faecalis [8]: 2 mg/L | localization of FtsZ [3]: leads to dispersion of FtsZ; also recorded: replicated the FtsZ dispersion phenotype | localization of FtsZ, FtsA and PBP2B [3]: led to dispersion of the septal peptidoglycan synthesis machinery | MIC50 VRE [9]: 2 mg/L | MIC50 S. Aureus (S. aureus (ATCC 25913)): 2 mg/L | MIC50 MRSA [10]: 2 mg/L
